# According to patent US20240417410A1, “TRICYCLIC COMPOUNDS FOR THE TREATMENT OF CANCER” (Hoffmann-La Roche Inc., priority 2023, published 2024):
# Experiments:
# DUSP6 = experiment: SHP-77 xenograft single-dose PK/PD study, tumor DUSP6 levels; type: in vivo, mouse; settings: single oral dose of 30 mg/kg
# From the text: The purpose of the study was to assess the anti-tumor activity in difficult KRAS mutated xenograft tumor model using SHP-77 (small cell lung cancer, SCLC; ATCC CRL-2195) by examining the time-dependent effects on MAPK pathway modulation and tumor suppression post-administration of Example 24 and reference compound A122.
# Female CB17-SCID mice at 6-8 weeks old from Vital River Co., LTD. were used for these studies. In order to generate subcutaneous xenograft tumors, each mouse was inoculated at the right flank with tumor cells in 100 μL of PBS and Matrigel matrix in the right hind flank with 1×10^7 cells. Mouse health was monitored daily, and caliper measurements began when tumors were palpable. Tumor volume measurements were determined utilizing the formula 0.5×L×W^2 in which L refers to length and W refers to width of each tumor. When tumors reached an average tumor volume of approximately 100-200 mm^3 for efficacy study and 300-500 mm^3 for single-dose PK/PD study, mice were randomized into treatment groups.
# Mice were treated by oral gavage at 10 mg/kg with either vehicle consisting of DMSO: Solutol HS15: water=10:10:80 (% v/v/v) or compounds (Example 24, A122) in vehicle at indicated doses. For efficacy studies, animals were orally administered daily, tumor volumes and body weights were measured 3 times per week. Study day on efficacy plots indicates the day after which compound treatment was initiated. For single-dose PK/PD study, at the indicated time points after a single dose of Example 24 at the indicated dose levels, tumor samples were collected for PD analysis. RNA extraction and analysis of DUSP6 levels by in tumor tissue were performed as described in Example 134.
# WT NRAS-BRAF complex = WT NRAS-BRAF complex (Homo sapiens (Human), UniProt P01111+P62937); experiment: WT NRAS-BRAF with CYPA interaction assay (TR-FRET); type: biochemical; settings: WT NRAS
# WT NRAS-BRAF complex, sequence (P01111 whole entry, looked up): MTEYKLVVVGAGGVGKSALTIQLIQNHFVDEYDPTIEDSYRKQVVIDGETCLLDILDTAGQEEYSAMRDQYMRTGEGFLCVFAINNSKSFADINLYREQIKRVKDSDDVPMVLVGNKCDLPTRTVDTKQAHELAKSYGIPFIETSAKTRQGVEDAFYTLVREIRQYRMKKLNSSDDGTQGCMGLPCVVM
# WT NRAS-BRAF complex, sequence (P62937 whole entry, looked up): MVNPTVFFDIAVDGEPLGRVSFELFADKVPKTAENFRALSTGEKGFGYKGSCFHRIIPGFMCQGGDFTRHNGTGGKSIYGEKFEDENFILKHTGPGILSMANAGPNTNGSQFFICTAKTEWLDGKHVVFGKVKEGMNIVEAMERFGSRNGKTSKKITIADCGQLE
# Experimental: In this example, TR-FRET was used to measure the compound or compound-CYPA dependent disruption of the KRAS G12V-BRAF complex to assess inhibition efficacy. The IC50 ratio between WT KRAS/HRAS/NRAS and KRAS G12V mutant was calculated as selective index, which indicated tolerability and safety profile. Disruption of WT KRAS/HRAS/NRAS-BRAF complex by compounds was detected respectively. In assay buffer containing 25 mM HEPES (PH-7.4,4-(2-hydroxyethyl)-1-piperazineethanesulfonic acid, Thermo, 15630080), 0.002% Tween20, 0.1% BSA, 100 mM NaCl, 5 mM MgCl2, 10 μM GMPPNP (Guanosine 5′-[β,γ-imido]triphosphate trisodium salt hydrate, Sigma, G0635), tagless CYPA and GMPPNP loaded 6His-RAS proteins, and GST-BRAF^RBD were mixed in a well of a 384-well assay plate at final concentrations of 50 nM, 6.25 nM and 1 nM, respectively. Compound was present in plate wells as a 16-point 3-fold dilution series starting at a final concentration of 10 μM and incubated for 3 hours. A mixture of MAb Anti-6His-XL665 (Cisbio, 61HISXLB) and Mab anti-GST-TB cryptate (Cisbio, 61GSTTLB) was then added at a final concentration of 6.67 nM and 0.21 nM, respectively, and the plate was incubated for an additional 1.5 hours. TR-FRET signal was read on a PHERstar FSX microplate reader (Ex320 nm, Em 665/615 nm). Compounds that facilitate disruption of the RAS-BRAF complex were identified as those eliciting a decrease in the TR-FRET ratio relative to DMSO control wells.
# CYPA = CYPA (Homo sapiens (Human), UniProt P62937); experiment: CYPA binding analysis by surface plasmon resonance (SPR)
# CYPA, sequence (P62937 whole entry): as the sequence (P62937 whole entry, looked up) above
# From the text: The compounds of this invention created a tri-complex involving the active RAS protein and CYPA, necessitating the initial formation of a binary complex through the compound's interaction with CYPA. The stability of the drug-target complex, as indicated by its equilibrium dissociation constant (KD), is thought to influence the length of target engagement, which in turn could lead to a prolonged effect in the washout experiments. Therefore, the objective of this study is to evaluate the binding kinetics of the compounds with CYPA to determine the stability of the CYPA-compound binary complex and to evaluate whether this stability correlates with the sustained inhibition of the target.
# All SPR experiments were conducted on a Biacore 8K+ instrument (Cytiva). Recombinant biotinylated CYPA protein with a C-terminal AVI tag was purified and immobilized on flow cell 2 of SA chip (Cytiva, BR100531), with the flow cell 1 as the blank reference. The running buffer was HBS-P+ Buffer (Cytiva, BR100827, 0.01 M HEPES pH 7.4,0.15 M NaCl, 0.05% v/v Surfactant P20), and the flow rate was 10 μL/min. The immobilization level was achieved to about 1800 response units (RU). Compounds were 3-fold serially diluted to 1.5-3333 nM using HBS-P+Buffer with a final DMSO concentration of 1.5%, and then loaded to flow through the chip surface at a rate of 30 μL/min with HBS-P+Buffer containing 1.5% DMSO as the running buffer. Experiments were performed at 25° C. The contact time and dissociation time were set to 60 s and 200 s, respectively. After binding and dissociation of each sample, the chip was regenerated using 1 M NaCl with a short contact time of 19 s at a rate of 60 μL/min. The sensorgrams were analyzed using Biacore Insight Evaluation software with 1:1 kinetics binding model to determine the association rate constant (kon), dissociation rate constant (koff) and equilibrium dissociation constant (KD).
Structure (SMILES),tumor DUSP6 levels remaining (DUSP6; 24 h) [%],tumor DUSP6 levels remaining (DUSP6; 48 hours) [%],tumor DUSP6 levels remaining (DUSP6; 72 hours) [%],IC50 (WT NRAS-BRAF complex) [µM],"koff (CYPA; SPR, 25° C., immobilized CYPA) [s⁻¹]","kon (CYPA; SPR, 25° C., immobilized CYPA) [M⁻¹ s⁻¹]",fold lower KD compared to A122 (CYPA) [fold],fold lower koff compared to A122 (CYPA) [fold],"Kd (CYPA; SPR, 25° C., immobilized CYPA) [µM]"
"CCn1c(-c2cc(N3CCN(C)CC3)cnc2[C@H](C)OC)c2c3cc(ccc31)-c1csc(n1)C[C@H](NC(=O)[C@H]1C[C@@H]1C)C(=O)N1CCC[C@H](N1)C(=O)OCC(C)(C)O2 [Example A122, reference compound]",4.3,67,126,0.01,0.056,1.9e+06,–,–,–
"CO[C@@H](C)c1ncc(N2CCN(C)CC2)cc1-c1c2c3cc(cc4c3n1CCC4)-c1csc(n1)C[C@H](NC(=O)[C@H]1[C@H](C)[C@@H]1C)C(=O)N1CCC[C@H](N1)C(=O)OCC(C)(C)C2 (atropisomer, axis not shown; (M)) [Example 24, (1r,2R,3S)-N-[(7S,13S)-(20M)-20-[2-[(1S)-1-methoxyethyl]-5-(4-methylpiperazin-1-yl)-3-pyridyl]-17,17-dimethyl-8,14-dioxo-15-oxa-4-thia-9,21,30,31-tetrazahexacyclo[23.3.1.1^2,5.1^9,13.0^19,27.0^21,26]hentriaconta-1 (28),2,5 (31), 19,25 (29),26-hexaen-7-yl]-2,3-dimethyl-cyclopropanecarboxamide]",3.9,31,73.7,0.035,0.019,1.4e+06,2.3,2.9,0.013
